According to US20240024479A1, “NK CELLS OR T CELLS EXPRESSING CHIMERIC HEMATOPOIETIC GROWTH FACTOR RECEPTORS AND METHODS OF USE” (The United States of America, as represented by the …, priority 2020, published 2024):

Key:
c-MPL+ KHYG-1 cells = assay: In vitro cell expansion of c-MPL+ KHYG-1 cells; format: cell-based, human
Text: Lentiviral production and transduction: Lentivirus gene expression vectors encoding EGFP-P2A linker-human EPOR or EGFP-P2A-human c-MPL were cloned according to our design by VectorBuilder (TX, USA). Plasmid DNA for the above and pCMV-dR8.2 dvpr and pCMV-VSV-G packaging plasmids was purified using ZymoPUREII-EndoZero plasmid maxiprep kit (Zymo Research, CA). Lentiviral particles were generated with HEK293T cells and Lipofectamine3000 reagent (Thermo Fisher Scientific, MA) following the manufacturers' instructions. Viral supernatant was harvested at 24 and 48 hours, pooled, and concentrated with lenti-X concentrator (Takara Bio, Japan) or by centrifugation at 18,600 rpm for 2 hours at 4° C. […] After 5 days post-transduction, cells were stained and sorted with fluorescence-activated cell sorting (FACS) using a BD FACSAria II to purify GFP^+EPOR^+ and GFP^+c-MPL^+ NK cell populations.
In vitro cell expansion cultures: The NK-92 (5×10^4 cell/ml) and KHYG-1 (1×10^4 cell/ml) cells were cultured in 1 ml of complete medium in 24-well plate. […] Trypan blue negative cells were counted every other day. […] Viable cells were counted and percentage of GFP^+ cells was acquired on indicated days (NK: day 4 and 6, T: day 3 and 6). The fold change of GFP^+ cells was calculated by multiplying the counted cell number times the fraction GFP^+.

c-MPL+ NK-92 cells = assay: Short-term expansion and apoptosis assay, c-MPL+ NK-92; format: cell-based, human; conditions: TPO plus LD IL-2 vs LD IL-2 alone; day 3
Experimental: In vitro cell expansion cultures: The NK-92 (5×10^4 cell/ml) and KHYG-1 (1×10^4 cell/ml) cells were cultured in 1 ml of complete medium in 24-well plate. […] Trypan blue negative cells were counted every other day. […] For competitive primary NK and T cell expansion assay, all transduced cells (5×10^5/ml for NK and 4×10^5/ml for T cell) containing a mixture of GFP positive (transduced) and GFP negative (untransduced) cells were plated on day 0. Fresh medium with appropriate supplements was replaced every other day for NK cells and only on day 3 for T cell experiment. Viable cells were counted and percentage of GFP^+ cells was acquired on indicated days (NK: day 4 and 6, T: day 3 and 6). The fold change of GFP^+ cells was calculated by multiplying the counted cell number times the fraction GFP^+.
Staining was performed in phosphate-buffered saline (PBS) with 2% FBS and 2 mM EDTA and analyzed on a BD LSRFortessa machine. If intracellular staining was required, BD cytofix/cytoperm (BD Biosciences) was applied for cell fixation and permeabilization after surface staining. The apoptosis assay was performed using PE annexinV apoptosis detection kit (BD Biosciences). The data were analyzed on FlowJo software.

For “TPO: recombinant human thrombopoietin, ligand of the c-MPL receptor; 50 ng/ml rhTPO (R&D)”, the “cell growth of transduced KHYG-1 cells” value (c-MPL+ KHYG-1 cells; TPO alone) was “insufficient to maintain cell growth”, the “proliferative response of receptor-transduced KHYG-1 NK cells” value (c-MPL+ KHYG-1 cells; TPO with low-dose IL-2 (1 U/ml or 5 U/ml)) was “synergized” and the “proportion of dead/apoptotic cells” value (c-MPL+ NK-92 cells) was “significantly lower proportions of dead/apoptotic cells”.
